Measurements: patent US12522597B2, “Methods and compositions for modulating splicing” (Skyhawk Therapeutics, Inc., priority 2019, dated 2026)
Where two headings read alike, the source gives them in different places.

Columns and labels:
[1] = system: Huntingtin (HTT) transcripts; test: Quantitative splicing assay (HTT), qPCR; assay type: cell-based; settings: Homo sapiens, GM04724 (CAG 70/20) Huntington's disease patient lymphoblasts, 24 h
Protocol: GM04724 (CAG 70/20) Huntington's disease patient lymphoblasts (Coriell) are plated in 96-wel v-bottom plates at 50,000 cells/well. Immediately after plating, cells are dosed with compound for 24 h at concentrations ranging from 2.5 uM to 0.15 nM (0.1% DMSO). Treated cells are lysed and cDNA synthesized using the Fast Advanced Cells-to-Ct kit (Thermofisher A35378) according to the manufacturer's instructions. 2 uL of each cDNA are used in qPCR reactions to confirm the compound-induced inclusion of a cryptic exon within intron 49 of the Huntingtin (HTT) transcripts. The qPCR reactions are prepared in 384-well plates in 10 uL volume, using TaqMan™ Fast Advanced Master Mix [ThermoFisher; 4444965] with primers and probes shown in the table below. Reactions are run in a Quant Studio 6 qPCR instrument with default settings.

mHTT protein = mHTT protein assay (2B7-MW1, Mesoscale Discovery); assay type: cell-based, human; settings: GM04724 (CAG 70/20) Huntington's disease patient lymphoblast cells, 48 hours, 2B7-MW1 MSD; read-out: HTT Potency - Protein EC50 mHTT (average)
How it was run: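 mHTT levels were read with the 2B7-MW1 antibody pair (N17 and polyQ epitopes) on MSD after 48 h dosing, 10 μM–0.6 nM. Cells were GM04724 HD lymphoblasts (CAG 70/20). A replica plate was read by CTG for cell viability.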

[2] = system: MDR1-MDCK cell monolayers; test: MDCK-MDR1 permeability assay (BBB penetration potential); assay type: in vitro ADME; settings: dog, MDCK-MDR1, 120 min, 5 μM, pH 7.4
Protocol: (§1) Each determination is performed in duplicate. […] Analytical conditions are outlined below.

MDR1 = test: as above; assay type: in vitro ADME; settings: dog; for efflux ratio at 120 min, 5 μM: MDCK-MDR1, pH 7.4, MDCK-MDR1: Efflux; for Papp A→B at 120 min, 5 μM: MDCK-MDR1, pH 7.4, MDCK-MDR1: Papp A-B; for Papp B→A at 120 min, 5 μM: MDCK-MDR1, pH 7.4, MDCK-MDR1: Papp B-A
Protocol: as §1

[3] = qPCR HTTex49_50, read-out: HTT Potency - Splicing: E49-50 EC50 (average)
[4] = qPCR cryptic exon 49b inclusion, read-out: HTT Potency - Splicing: E49b EC50 (average)

SMILES	EC50 [1, 3]	EC50 [1, 4]	EC50 (mHTT protein)	MDCK-MDR1: % Recov A-B [2]	MDCK-MDR1: % Recov B-A [2]	efflux ratio at 120 min, 5 μM (MDR1)	Papp A→B at 120 min, 5 μM (MDR1)	Papp B→A at 120 min, 5 μM (MDR1)
COc1cc(-c2ccc(-c3ccc(O[C@@H]4C[C@@]5(C)CC[C@](C)(N5)[C@@H]4F)nn3)c(O)c2)cnn1 (single isomer, unassigned) [157-ENT1]	0.016 to 0.05 µM	0.016 to 0.05 µM	0.016 to 0.05 µM	77%	84%	6	62.8 nm/s	357 nm/s
Cn1cc(-c2ccc(-c3ccc(O[C@@H]4C[C@@H]5CCC[C@@H](N5)[C@H]4F)nn3)c(O)c2)cn1 (single isomer, unassigned) [121-ENT2]	0.501 to 10 µM	0.501 to 10 µM	0.501 to 10 µM	75%	90%	3	135 nm/s	459 nm/s
C[C@]12CC[C@](C)(N1)[C@H](F)[C@H](Oc1ccc(-c3ccc(C#N)cc3O)nn1)C2 (single isomer, unassigned) [152-ENT1]	–	–	0.501 to 10 µM	88%	98%	5	116 nm/s	594 nm/s
Cc1ccc(-c2ccc(-c3ccc(O[C@@H]4C[C@H]5CCC[C@H](N5)[C@@H]4F)nn3)c(O)c2)s1 (single isomer, unassigned) [100-ENT1]	–	–	0.101 to 0.5 µM	16%	49%	1	9.9 nm/s	6.8 nm/s
Cc1cc(-c2ccc(-c3ccc(O[C@H]4C[C@@H]5CCC[C@@H](N5)[C@H]4F)nn3)c(O)c2)cnn1 (single isomer, unassigned) [90-ENT2]	–	–	0.101 to 0.5 µM	101%	97%	34	19.2 nm/s	646 nm/s
C[C@@]12CC[C@@](C)(N1)[C@@H](F)[C@@H](Oc1ccc(-c3ccc(-n4cccn4)cc3O)nn1)C2 (single isomer, unassigned) [153-ENT2]	–	–	0.016 to 0.05 µM	60%	71%	3	71.6 nm/s	247 nm/s
Cn1cc(-c2ccc(-c3ccc(O[C@@H]4C[C@H]5COC[C@H](N5)[C@@H]4F)nn3)c(O)c2)cn1 (single isomer, unassigned) [124-ENT1]	–	–	0.501 to 10 µM	82%	88%	3	175 nm/s	515 nm/s
N#Cc1ccc(-c2ccc(O[C@H]3C[C@@H]4CC[C@@H](N4)[C@H]3F)nn2)c(O)c1 (single isomer, unassigned) [111-ENT2]	–	–	0.501 to 10 µM	92%	96%	4	144 nm/s	587 nm/s
Cn1cnc(-c2ccc(-c3ccc(O[C@H]4C[C@@H]5CCC[C@@H](N5)[C@H]4F)nn3)c(O)c2)cc1=O (single isomer, unassigned) [138-ENT2]	–	–	0.101 to 0.5 µM	92%	91%	32	18.8 nm/s	607 nm/s
Cn1ccc(=O)c2cc(-c3ccc(O[C@@H]4C[C@@]5(C)CCC[C@](C)(N5)[C@@H]4F)nn3)c(O)cc21 (single isomer, unassigned) [131-ENT2]	–	–	0.501 to 10 µM	91%	96%	56	7.9 nm/s	446 nm/s
Oc1cc(-n2ccnc2)ccc1-c1ccc(O[C@H]2C[C@@H]3CC[C@@H](N3)[C@H]2F)nn1 (single isomer, unassigned) [36-ENT2]	–	–	0.051 to 0.1 µM	61%	73%	5	54.1 nm/s	289 nm/s
Oc1cc(-c2ccc3cncn3c2)ccc1-c1ccc(O[C@H]2C[C@@H]3CCC[C@@H](N3)[C@H]2F)nn1 (single isomer, unassigned) [85-ENT2]	–	–	0.101 to 0.5 µM	33%	61%	7	22.6 nm/s	153 nm/s
Cc1ccc(-c2ccc(-c3ccc(O[C@@H]4C[C@H]5CCC[C@H](N5)[C@@H]4F)nn3)c(O)c2)o1 (single isomer, unassigned) [99-ENT1]	–	–	0.101 to 0.5 µM	9%	47%	1	20.7 nm/s	23.7 nm/s
Cn1cc(-c2ccc(-c3ccc(O[C@H]4C[C@]5(C)CC[C@@](C)(N5)[C@H]4F)nn3)c(O)c2)cn1 (single isomer, unassigned) [150-ENT1]	–	–	0.051 to 0.1 µM	77%	85%	4	75.5 nm/s	279 nm/s
Cc1nc(-c2ccc(-c3ccc(O[C@@H]4C[C@H]5CCC[C@H](N5)[C@@H]4F)nn3)c(O)c2)cs1 (single isomer, unassigned) [71-ENT2]	–	–	0.016 to 0.05 µM	50%	67%	6	57.8 nm/s	331 nm/s
Cc1cc(-c2ccc(-c3ccc(O[C@@H]4C[C@H]5CCC[C@H](N5)[C@@H]4F)nn3)c(O)c2)cs1 (single isomer, unassigned) [101-ENT1]	–	–	0.101 to 0.5 µM	25%	70%	1	8.6 nm/s	7.6 nm/s
Cc1ncn(-c2ccc(-c3ccc(O[C@@H]4C[C@H]5CCC[C@H](N5)[C@@H]4F)nn3)c(O)c2)n1 (single isomer, unassigned) [70-ENT1]	–	–	0.101 to 0.5 µM	93%	99%	7	66.2 nm/s	446 nm/s
Oc1cc(-c2nncs2)ccc1-c1ccc(O[C@@H]2C[C@H]3CCC[C@H](N3)[C@@H]2F)nn1 (single isomer, unassigned) [116-ENT1]	–	–	0.016 to 0.05 µM	88%	91%	8	77.6 nm/s	592 nm/s
Cc1nnc(-c2ccc(-c3ccc(O[C@H]4C[C@@H]5CCC[C@@H](N5)[C@H]4F)nn3)c(O)c2)o1 (single isomer, unassigned) [94-ENT2]	–	–	0.101 to 0.5 µM	93%	87%	7	63.5 nm/s	467 nm/s
